According to PubChem BioAssay (NCI):
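Following 48 hours of exposure in 96-well plates, responses at five concentrations were used to interpolate endpoints linearly. The concentration for 50% growth inhibition is given as GI50. TGI is the concentration that stops growth completely.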

Key:
Experiment in all cases: NCI anticancer screen, dose series, 48 h
CAKI-1 renal = test system: CAKI-1 renal
CCRF-CEM leukemia = test system: CCRF-CEM leukemia
HL-60(TB) leukemia = test system: HL-60(TB) leukemia
HOP-92 NSCLC = test system: HOP-92 NSCLC
MOLT-4 leukemia = test system: MOLT-4 leukemia
NCI-H460 lung = test system: NCI-H460 lung
TK-10 renal = test system: TK-10 renal
RXF 393 renal = test system: RXF 393 renal

SMILES	TGI (CAKI-1 renal)	TGI (CCRF-CEM leukemia)	TGI (HL-60(TB) leukemia)	TGI (HOP-92 NSCLC)	TGI (MOLT-4 leukemia)	TGI (NCI-H460 lung)	TGI (TK-10 renal)	GI50 (CAKI-1 renal)	GI50 (CCRF-CEM leukemia)	GI50 (HL-60(TB) leukemia)	GI50 (HOP-92 NSCLC)	GI50 (MOLT-4 leukemia)	GI50 (NCI-H460 lung)	GI50 (RXF 393 renal)	TGI (RXF 393 renal)	GI50 (TK-10 renal)
CC(C)(C(=O)NN)c1ccccc1	> 100 µM	> 100 µM	> 100 µM	> 100 µM	> 100 µM	> 100 µM	> 100 µM									
CCCN1C(=O)/C(=c2\sc3n(c2=O)C2C(NN=3)N(CC)C(=O)N2CC)c2ccccc21 (centres undefined)	16.1 µM	> 100 µM	1.03 µM	16.3 µM	> 100 µM	12.1 µM	22.3 µM	0.445 µM	0.423 µM	0.3 µM	0.885 µM	0.811 µM	0.411 µM	0.277 µM	3.23 µM	3.62 µM
C[C@]12CC[C@H]3[C@@H](CCC4=CC(=O)CC[C@@H]43)[C@@H]1CC[C@@H]2OC(=O)N(CCCl)N=O	27.6 µM	> 35.4 µM	2.15 µM	17.5 µM	> 32.6 µM	2.45 µM	43.8 µM	0.51 µM	1.45 µM	0.28 µM	0.391 µM	0.716 µM	0.0702 µM			11.1 µM
CC(=O)OC1c2ccccc2CC2(OC(C)=O)c3ccccc3C12 (centres undefined)	> 100 µM	> 100 µM		> 100 µM	> 100 µM	> 100 µM	> 100 µM								> 100 µM	
CSc1nnc(CCSc2ccnc3c(C(F)(F)F)cccc23)o1	> 100 µM	> 100 µM	> 100 µM	> 100 µM	> 100 µM	> 100 µM	> 100 µM	31.8 µM	67.9 µM	55.1 µM	18.1 µM	27.7 µM	> 100 µM	65.3 µM	> 100 µM	70.1 µM
CCN=C1C=CC(=C(c2ccc(N(C)C)cc2)c2ccc(N(C)C)cc2)c2ccccc21	0.52 µM	3.64 µM	0.141 µM	0.352 µM	2.54 µM	0.572 µM	1.31 µM	0.2 µM	0.153 µM	0.0434 µM	0.0414 µM	0.202 µM	0.0657 µM			0.0913 µM
Cn1c(=O)c2[nH]c(/N=N/N3CCN(CCO)CC3)nc2n(C)c1=O	> 100 µM	> 100 µM	> 100 µM	> 100 µM	> 100 µM	> 100 µM	> 100 µM								> 100 µM	
O=C1C(Cl)=C(N/N=c2/[nH][nH]/c(=N/NC3=C(Cl)C(=O)c4ccccc4C3=O)c3ccccc23)C(=O)c2ccccc21	41.4 µM	56.7 µM	34.2 µM		34.6 µM	49.5 µM		17.7 µM	10 µM	8.45 µM		4.9 µM	19.7 µM			
N=C(N)c1nn(C2OC(CO)C(O)C2O)c2nc[nH]c(=O)c12 (centres undefined)	1.2 µM		0.538 µM	5.93 µM	4.12 µM	9.09 µM	2.17 µM	0.264 µM	0.434 µM	0.207 µM	1.29 µM	0.491 µM	0.487 µM	0.696 µM	4.89 µM	0.363 µM
N#CSc1ncnc2nc[nH]c12	30.1 µM	> 100 µM	> 100 µM	> 94 µM	> 100 µM	> 100 µM	> 100 µM	2.01 µM	3.32 µM	5.5 µM	6.91 µM	4.28 µM	17.3 µM	21.6 µM	> 100 µM	4.17 µM
CCOC(=O)Cc1c[nH]c(=S)[nH]c1=O	> 100 µM	> 100 µM	> 100 µM	> 100 µM	> 100 µM	> 100 µM	> 100 µM	> 100 µM	> 100 µM	> 100 µM	> 100 µM	> 100 µM	> 100 µM	> 100 µM	> 100 µM	> 100 µM
CC[C@H](Nc1nc(N)nc(C)c1C#N)c1nc2cccc(CN(C)c3ncc(C(=O)NO)cn3)c2c(=O)n1-c1ccccc1	6.56 µM	> 50 µM	3.48 µM	1.52 µM	> 50 µM	11.2 µM	3.85 µM	2.61 µM	0.228 µM	0.262 µM	0.204 µM	0.204 µM	1.15 µM	0.47 µM	1.33 µM	0.681 µM
CCc1ccc(NC(=O)Nc2c[nH]c3ccccc23)cc1	> 42 µM	> 100 µM	5.48 µM	> 53.1 µM	> 100 µM	> 49.6 µM	> 70.9 µM	3.59 µM	0.358 µM	0.811 µM	12 µM	1.85 µM	12.7 µM	11.6 µM	> 59.4 µM	> 46.1 µM
CC1(C)CCC2(C(=O)OC3OC(CO)C(O)C(O)C3O)CC[C@]3(C)C(=CCC4C5(C)CC[C@H](OC6OC(C(=O)O)C(O)C(O)C6O)C(C)(C)C5CCC43C)C2C1 (some centres undefined)	> 50 µM	> 50 µM	3.45 µM	2.98 µM	2.84 µM	> 50 µM	10.3 µM	17.2 µM	23.1 µM	1.22 µM	1.04 µM	0.997 µM	2.51 µM	1.65 µM	> 50 µM	1.85 µM
COc1cc2nc(Cl)nc(Nc3cccc(C(=O)/C=C/c4ccccc4)c3)c2cc1OC	35.4 µM	> 100 µM	> 100 µM	8.52 µM	> 100 µM	> 100 µM	20 µM	4.17 µM	2.45 µM	3.61 µM	2.09 µM	2.77 µM	4.2 µM	2.02 µM	5.46 µM	4.19 µM
Nc1ncnc2c1ccn2C1OC2COP(=O)(O)OC2C1O (centres undefined)		20.2 µM	> 23.2 µM	7.41 µM	10.9 µM	12.9 µM	4.8 µM								5.02 µM	
CCN(CC)c1ccc(/C=C/c2cc(C)c3ccccc3n2)cc1	13.4 µM	87.8 µM	27.8 µM	22.9 µM	43.1 µM	11.7 µM	13.8 µM	1.93 µM	2.85 µM	3.42 µM	3.63 µM	4.07 µM	3 µM	3.43 µM	9.44 µM	4.47 µM

SMILES	TGI (CAKI-1 renal)	TGI (CCRF-CEM leukemia)	TGI (HL-60(TB) leukemia)	TGI (HOP-92 NSCLC)	TGI (MOLT-4 leukemia)	TGI (NCI-H460 lung)	TGI (TK-10 renal)	GI50 (CAKI-1 renal)	GI50 (CCRF-CEM leukemia)	GI50 (HL-60(TB) leukemia)	GI50 (HOP-92 NSCLC)	GI50 (MOLT-4 leukemia)	GI50 (NCI-H460 lung)	GI50 (RXF 393 renal)	TGI (RXF 393 renal)	GI50 (TK-10 renal)
CC12CCC(=O)C(O1)C1C(=O)c3cc4ccccc4cc3C(=O)C12 (centres undefined)	25.6 µM	31 µM	48 µM	29.7 µM	74.1 µM	51 µM	33.6 µM	4.94 µM	11.4 µM	19.5 µM	13.9 µM	10.4 µM	14 µM	2.5 µM	14.6 µM	16.6 µM
CC12CCC=CC1CCC1C2CCC2(C)C(c3ccc(=O)oc3)CCC12O (centres undefined)	0.548 µM	0.544 µM	0.0689 µM	0.639 µM	0.0967 µM		0.499 µM	0.0942 µM	0.0364 µM	0.0257 µM	0.123 µM	0.0282 µM		0.0167 µM	0.047 µM	0.0479 µM
Cc1cc(N2CCCCC2)nc(N(CCNc2ccnc3cc(Cl)ccc23)Cc2ccco2)n1		8.76 µM	3.94 µM	21.7 µM	5.31 µM	3.34 µM	4.08 µM		2.47 µM	1.91 µM	5.73 µM	2.29 µM	1.76 µM	1.56 µM	3.32 µM	1.94 µM
C=C1C(=O)O[C@@H]2C1CC(=O)C(C)CC/C=C(\C)CCC[C@H](C)[C@H]2OC(C)=O (some centres undefined)	24.4 µM	4.75 µM		9.12 µM	35 µM	43.6 µM	8.43 µM	11.9 µM	2 µM		1.64 µM	10.9 µM	21.2 µM	7.9 µM	24.4 µM	1.79 µM
O=S(=O)(c1ccc(NC(=S)NCc2cccnc2)cc1)N1CCCCC1	> 100 µM	> 100 µM		> 100 µM	> 100 µM	> 100 µM	> 100 µM	20.4 µM	0.823 µM		11.1 µM	40.3 µM	7.67 µM	72.4 µM	> 100 µM	47.5 µM
O=C(CCl)c1ccc([N+](=O)[O-])o1	3.24 µM	2.51 µM				28.1 µM	3.49 µM	1.73 µM	0.932 µM	1.64 µM		1.15 µM	10.3 µM	2.2 µM	8.24 µM	1.79 µM
COc1cc2cc(Oc3ccc(NC(=O)Nc4ccc(Cl)c(C(F)(F)F)c4)cc3)c(C)nc2cc1OCCN1CCCCC1	2.64 µM	3.76 µM	3.53 µM	2.41 µM	2.71 µM	3.47 µM	3.38 µM	1.31 µM	1.68 µM	1.87 µM	1.09 µM	1.1 µM	1.85 µM			1.79 µM
O=C(O)[C@@H]1C2CC([C@@H]1C(=O)O)[C@H](N1C(=O)CCC1=O)[C@@H]2Br (some centres undefined)		> 100 µM	> 100 µM	> 100 µM	> 100 µM	> 100 µM	> 100 µM								> 100 µM	
Cc1ccc(C(=O)Nc2ccc(S(=O)(=O)O)c3cc(S(=O)(=O)O)cc(S(=O)(=O)O)c23)cc1NC(=O)c1cccc(N)c1	> 100 µM	> 100 µM	> 100 µM		> 100 µM	> 100 µM	> 100 µM								> 100 µM	
COc1cccc(OC(=O)c2ccccc2Nc2ccnc(C(F)(F)F)c2)c1	80.2 µM		15.2 µM	60.4 µM	4.29 µM	> 100 µM	37 µM	2.68 µM		2.15 µM	5.77 µM	0.692 µM	4.1 µM	20.7 µM	59.6 µM	11.2 µM
CCN1C(=O)N(CC)C2C1NN=c1s/c(=C3\C(=O)N(C(C)C)c4ccccc43)c(=O)n12 (centres undefined)	> 54.4 µM	> 100 µM	0.63 µM	6.53 µM	> 100 µM	> 100 µM	> 69.4 µM	0.423 µM	0.377 µM	0.24 µM	0.342 µM	0.379 µM	0.354 µM			1.33 µM
CN(C)c1ccc2nc3ccc(=[N+](C)C)cc-3oc2c1	57.6 µM	32.2 µM	1.2 µM		5.04 µM	> 100 µM	57.2 µM	5.92 µM	1.21 µM	0.269 µM		1.76 µM	2.82 µM	10.6 µM	50.4 µM	17.2 µM
Nc1ncnc2sc(=S)c3c(c12)CCC3	> 100 µM	79.5 µM			69.7 µM	> 100 µM	> 100 µM	30.9 µM	27.1 µM			23.2 µM	35.1 µM	26.9 µM	55.1 µM	39.6 µM
COc1ccc(Cn2nc(-c3cc(OC)c(OC)c(OC)c3)c3c2CCc2cnoc2-3)cc1OC		> 100 µM	2.28 µM		> 100 µM	> 100 µM	> 100 µM		3.17 µM	0.113 µM		3.76 µM	3.28 µM	1.63 µM	9.29 µM	10.1 µM
COc1ccc2c(c1)CCC1C2CCC2(C)C1CCC2(O)CNC(=O)CCCCC1CCSS1 (centres undefined)	40.2 µM	4.33 µM		23 µM	> 100 µM	> 100 µM	57 µM	18.1 µM	1.59 µM		4.9 µM	1.66 µM	3.25 µM	11.7 µM	44 µM	17.7 µM
CN(C)CCCNC(=O)c1cc(NC(=O)CCNS(=O)(=O)c2ccc3c(c2)C(=O)c2ccccc2C3=O)cn1C	> 100 µM	> 100 µM		> 100 µM	> 100 µM	> 100 µM	> 100 µM	> 100 µM	> 100 µM		88.9 µM	> 100 µM	> 100 µM	> 100 µM	> 100 µM	> 100 µM
Cc1ccc2[nH]c(C(=O)NN3C(=O)CSC34CCCCC4C)c(-c3ccccc3)c2c1 (centres undefined)	32.2 µM	38.5 µM		27.3 µM	28.4 µM	43.7 µM	33.8 µM	16.1 µM	17 µM		12.7 µM	9.38 µM	18.2 µM			17.5 µM
